# Assay results: BindingDB's records for patent US20240150293 (Les Laboratoires Servier, 2024)
# Target: T1, Induced myeloid leukemia cell differentiation protein Mcl-1 [C286S] (Homo sapiens, UniProt Q07820, C286S)
# T1 construct: gene MCL1
# Test: Method B: Inhibition of Mcl-1 by the Fluorescence Quenching Assay
# Procedure: The addition of a compound which binds competitively to the same site as the peptide will result in an increase in the fluorescence intensity of the protein due to displacement of the fluorescence quencher. An 11-point serial dilution of each compound was prepared in DMSO, the final buffer conditions were 10 mM 4-(2-hydroxyethyl)-1-piperazineethanesulfonic acid [HEPES], 150 mM NaCl, 0.05% Tween 20, pH 7.4 and 5% DMSO. The final protein concentration in the assay was 1 nM with the peptide present at 10, 20 or 400 nM. The experiments were incubated for 2 hours at room temperature before fluorescence intensity was measured on a Biotek SynergyNeo plate reader (Excitation 620 nm, emission 680 nm). The dose response curves were plotted with XL-Fit software using a 4-Parameter Logistic Model (Sigmoidal DoseResponse Model) and the inhibitory concentrations that gave a 50% increase in fluorescence intensity was determined (IC50). The Ki values were determined from the IC50 values according to Cer et al, Nucleic Acids Res, 2009, 37 (WebServer issue): W441-W445. Inhibition constants (Ki) are determined from complete binding inhibition curves (cKi) or from estimated from incomplete binding inhibition curves (eKi) in most cases due to low activity.
# T1 sequence (Q07820 whole entry C286S, looked up): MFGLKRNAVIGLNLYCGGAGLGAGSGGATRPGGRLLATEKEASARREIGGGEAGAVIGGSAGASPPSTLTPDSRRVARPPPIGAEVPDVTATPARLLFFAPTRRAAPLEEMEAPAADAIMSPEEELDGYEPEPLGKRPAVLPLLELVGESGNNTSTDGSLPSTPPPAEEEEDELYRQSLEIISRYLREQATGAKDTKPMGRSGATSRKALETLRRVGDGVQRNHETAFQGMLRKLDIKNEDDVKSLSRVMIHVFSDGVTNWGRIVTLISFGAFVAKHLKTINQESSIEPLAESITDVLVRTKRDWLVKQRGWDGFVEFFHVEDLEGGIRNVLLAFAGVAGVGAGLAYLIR
row,SMILES,Ki
1,"C[C@@H](COc1cccc2ncsc12)C[C@H]1Cc2ccccc2[C@]12CC[C@@](Nc1cccc(Cl)c1)(C(=O)O)CC2 [US20240150293, Example 625]",37.7 nM
2,"CCC1CC(O)c2nccc(OC[C@H](C)C[C@H]3Cc4ccccc4[C@]34CC[C@@](Nc3cccc(Cl)c3)(C(=O)O)CC4)c21 (stereo partly drawn) [US20240150293, Example 624]",4.48 nM
3,"C[C@@H](COc1ccnc2[nH]ccc12)C[C@H]1Cc2ccccc2[C@]12CC[C@@](Nc1cccc(Cl)c1)(C(=O)O)CC2 [US20240150293, Example 626]",3.91 nM
